Measurements reported in patent US4383113A, “Agricultural sulfonamides” (E. I. Du Pont de Nemours and Company, priority 1981, dated 1983).

What was measured:
Assay in all cases: Test A post-emergence
Set-up in all cases: key: 0 = no effect, 10 = maximum effect; letter = response symbol
wheat = assay type: in vivo
Outline: (§1)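 Seeds and tubers were treated preemergence in a growth medium with compound in a nonphytotoxic solvent, against untreated controls; emerged plants such as two-leaf barnyardgrass and five-leaf cotton were sprayed postemergence, against solvent-sprayed controls. After sixteen days in a greenhouse, response was rated visually from 0 to 10.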

corn = assay type: in vivo
Outline: as §1

soybean = assay type: in vivo
Outline: as §1

rice = assay type: in vivo
Outline: as §1

crabgrass = assay type: in vivo, Digitaria spp.
Outline: as §1

wild oats = assay type: in vivo, Avena fatua
Outline: as §1

nutsedge = assay type: in vivo, Cyperus rotundus
Outline: as §1

barnyardgrass = assay type: in vivo, Echinochloa crusgalli
Outline: as §1

sorghum = assay type: in vivo
Outline: as §1

cotton = assay type: in vivo
Outline: as §1

cassia = assay type: in vivo, Cassia tora
Outline: as §1

morningglory = assay type: in vivo, Ipomoea spp.
Outline: as §1

cocklebur = assay type: in vivo, Xanthium spp.
Outline: as §1

bush bean = assay type: in vivo, bush beans; conditions: 0.4 kg/ha

| SMILES | response rating (wheat; 0.4 kg/ha) | response rating (corn; 0.4 kg/ha) | response rating (soybean; 0.4 kg/ha) | response rating (rice; 0.4 kg/ha) | response rating (crabgrass; 0.4 kg/ha) | response rating (wild oats; 0.4 kg/ha) | response rating (nutsedge; 0.4 kg/ha) | response rating (barnyardgrass; 0.4 kg/ha) | response rating (morningglory; 0.4 kg/ha) | response rating (cocklebur; 0.4 kg/ha) | response rating (sorghum; 0.4 kg/ha) | response rating (cassia; 0.4 kg/ha) | response rating (bush bean) | response rating (cotton; 0.4 kg/ha) | also measured |
| --- | --- | --- | --- | --- | --- | --- | --- | --- | --- | --- | --- | --- | --- | --- | --- |
| CCCCCCCCCCOC(=O)c1ccccc1S(=O)(=O)NC(=O)Nc1nc(C)nc(OC)n1 [drawing 430] | 0 | 7H | 6H | 6G | 0 | 0 | 2G | 2H |  |  |  |  |  |  |  |
| CCCCOC(=O)c1ccccc1S(=O)(=O)NC(=O)Nc1nc(OC)cc(OC)n1 [drawing 439] |  |  |  |  |  |  |  | 9C | 9C | 9C |  |  |  |  | response rating (wheat; 2 kg/ha): 9C; response rating (corn; 2 kg/ha): 9C; response rating (sorghum; 2 kg/ha): 9C; response rating (rice; 2 kg/ha): 9C; response rating (cotton; 2 kg/ha): 9C; response rating (cassia; 2 kg/ha): 9C; response rating (wild oats; 2 kg/ha): 9C; response rating (morningglory; 2 kg/ha): 10C; response rating (nutsedge; 2 kg/ha): 9C; response rating (cocklebur; 2 kg/ha): 9C; response rating (barnyardgrass; 2 kg/ha): 10C |
| COC(=O)c1ccccc1S(=O)(=O)NC(=O)Nc1nc(OC)nc(OC)n1 [drawing 416] |  | 10C | 9C | 10C | 9C |  | 9C | 10C | 10C | 9C | 9C | 9C | 9C |  |  |
| COCCCOc1cc(C)nc(NC(=O)NS(=O)(=O)c2ccccc2C(=O)OC)n1 [drawing 470] |  | 9C | 8C | 8C | 9C |  | 9C | 9C |  |  | 9C | 9C | 9C |  |  |
| COc1cc(OC)nc(NC(=O)NS(=O)(=O)c2ccccc2C(=O)OC(C)C)n1 [drawing 436] |  |  |  | 7C | 6C | 6C | 9C | 9C | 10C | 10C | 9C | 9C |  | 9C |  |
| COC(=O)c1ccccc1S(=O)(=O)NC(=O)Nc1nc(OC)cc(OC(C)C(=O)OC)n1 (stereo not drawn) [drawing 468] | 9C | 9C | 9C | 9C | 9C | 9C | 9C | 9C | 9C |  | 9C | 9C | 9C |  |  |
| CCOC(=O)c1ccccc1S(=O)(=O)NC(=O)Nc1nc(OC)cc(OC)n1 [drawing 442] | 9C | 9C |  | 9C |  | 9C | 9C | 10C | 10C | 9C | 9C | 9C |  | 9C |  |
| COc1cc(C)nc(NC(=O)NS(=O)(=O)c2ccccc2C(=O)SC2CCCCC2)n1 [drawing 476] |  |  |  | 9C |  | 9C | 10C | 9C | 10C | 9C | 9C | 9C | 9C | 9C |  |
| CCCCCCCCCCOC(=O)c1ccccc1S(=O)(=O)NC(=O)Nc1nc(OC)cc(OC)n1 [drawing 427] | 1C |  | 1H | 8G | 2G | 1C | 2G |  | 1C |  | 9G | 5G |  |  |  |
| COc1cc(C)nc(NC(=O)NS(=O)(=O)c2ccccc2C(=O)OCCOCCOCCCl)n1 [drawing 448] | 9C |  | 8C | 8C |  | 9C |  | 10C | 10C | 9C |  | 9C | 9C | 9C |  |
| COC(=O)c1cc(Cl)c(Cl)cc1S(=O)(=O)NC(=O)Nc1nc(C)cc(OC)n1 [drawing 452] | 0 | 2G |  | 2C | 2G | 0 | 6G | 7H |  |  | 5G | 2C |  |  |  |
| CCCCCCCCCCOC(=O)c1ccccc1S(=O)(=O)NC(=O)Nc1nc(OC)nc(OC)n1 [drawing 429] | 0 | 6H | 7G | 2G | 3G | 0 | 3G | 1C |  |  | 7H | 5G |  |  |  |
| CCOC(=O)c1ccccc1S(=O)(=O)NC(=O)Nc1nc(OC)cc(OC)n1 [drawing 441] |  |  |  |  |  |  |  |  |  |  |  |  |  |  | response rating (wheat; 2 kg/ha): 9C; response rating (corn; 2 kg/ha): 9C; response rating (sorghum; 2 kg/ha): 10C; response rating (rice; 2 kg/ha): 9C; response rating (cotton; 2 kg/ha): 9C; response rating (crabgrass; 2 kg/ha): 9C; response rating (cassia; 2 kg/ha): 9C; response rating (wild oats; 2 kg/ha): 9C; response rating (morningglory; 2 kg/ha): 10C; response rating (nutsedge; 2 kg/ha): 9C; response rating (cocklebur; 2 kg/ha): 9C; response rating (barnyardgrass; 2 kg/ha): 10C |
| C=CCOC(=O)c1ccccc1S(=O)(=O)NC(=O)Nc1nc(C)nc(OC)n1 [drawing 451] | 9C | 9C | 9C | 9C |  | 9C |  | 9C | 10C | 10C | 9C | 9C | 9C |  |  |
| COC(=O)c1ccccc1S(=O)(=O)NC(=O)Nc1nnc(C)c(C)n1 [drawing 417] |  |  |  |  |  |  |  |  |  |  |  |  |  |  | response rating (wheat; 2 kg/ha): 10C; response rating (sorghum; 2 kg/ha): 9C; response rating (soybean; 2 kg/ha): 9C; response rating (rice; 2 kg/ha): 9C; response rating (crabgrass; 2 kg/ha): 9C; response rating (cassia; 2 kg/ha): 9C; response rating (wild oats; 2 kg/ha): 9C; response rating (nutsedge; 2 kg/ha): 9C; response rating (cocklebur; 2 kg/ha): 9C; response rating (barnyardgrass; 2 kg/ha): 9C |
| CCCCOC(=O)c1ccccc1S(=O)(=O)NC(=O)Nc1nc(C)cc(OC)n1 [drawing 440] |  |  |  |  | 3G | 8G |  | 10C | 9C | 9C |  |  |  |  | response rating (wheat; 2 kg/ha): 8C; response rating (corn; 2 kg/ha): 9C; response rating (sorghum; 2 kg/ha): 9C; response rating (soybean; 2 kg/ha): 9C; response rating (rice; 2 kg/ha): 8C; response rating (cassia; 2 kg/ha): 9C; response rating (morningglory; 2 kg/ha): 10C; response rating (nutsedge; 2 kg/ha): 9C; response rating (cocklebur; 2 kg/ha): 10C; response rating (barnyardgrass; 2 kg/ha): 10C |
| COc1nc(NC(=O)NS(=O)(=O)c2ccccc2C(=O)OCCCl)nc(OC)n1 [drawing 422] | 1C |  |  | 6G | 2C |  | 10C |  | 10C | 10C |  | 10C | 9C | 9C |  |
| COc1nc(NC(=O)NS(=O)(=O)c2ccccc2C(=O)OC(C)C)nc(OC)n1 [drawing 438] | 2C |  |  | 8C | 6G | 2C | 9C | 8C | 10C | 10C |  | 9C |  | 9C |  |
| COc1cc(C)nc(NC(=O)NS(=O)(=O)c2ccccc2C(=O)OC(C)C)n1 [drawing 437] |  | 9C |  | 8C |  |  | 9C | 10C | 9C | 10C | 10C | 9C |  | 10C |  |
| Cc1cc(C)nc(NC(=O)NS(=O)(=O)c2ccccc2C(=O)O)n1 [drawing 444] |  |  |  |  | 2G |  |  |  |  |  |  |  |  |  | response rating (sorghum; 10 kg/ha): 3G; response rating (soybean; 10 kg/ha): 1C; response rating (rice; 10 kg/ha): 5G; response rating (barnyardgrass; 10 kg/ha): 2G |
| COc1cc(C)nc(NC(=O)NS(=O)(=O)c2ccccc2C(=O)N(C)C)n1 [drawing 465] | 9C | 9C | 9C | 9C |  | 9C |  | 10C | 10C |  | 9C | 9C |  |  |  |
